By GI50 is commonly meant the concentration that inhibits growth by half. Low values mean more potent growth inhibition, high ones less potent growth inhibition.

We go through twelve compounds from patent US12668599B2, “Heterobifunctional compounds and methods of treating disease” (Halda Therapeutics OpCo, Inc., priority 2023, dated 2026).

Experiment [1] deals with T-Rex 293 cell line SC3 cells having increased expression of androgen receptor protein due to exposure to doxycycline. Kind of experiment: Cellular growth inhibition, T-Rex 293 SC3 cells with doxycycline-induced androgen receptor (CellTiter-Glo 2.0, 72 hours). It is filed as cell-based. The following applies: for Ratio of GI50's: GI50 of the top compound in the pair divided by GI50 of the lower compound, T-Rex 293 SC3 cells with doxycycline-induced androgen receptor; for GI50: T-Rex 293 SC3 cells with 10 ng/ml doxycycline (increased androgen receptor expression), 72 hours, CellTiter-Glo 2.0. On the procedure: (§1) Ability of the test compounds to inhibit proliferation of the foregoing cell types was evaluated according to the procedures set forth below.
(§2) The doxycycline-inducible androgen receptor protein expressing cell line was established using the following protocol: T-Rex 293 cells were purchased from Invitrogen (Cat #R71007) and transfected using Lipofectamine 2000 with the wild-type androgen receptor protein sequence cloned into the pcDNA4/TO vector. Transfected cells were selected using 400 μg/mL Zeocin (Invitrogen Cat #R25001). Following selection, single clones were raised and maintained in Dulbecco's Modified Eagle Medium (DMEM) supplemented with 10% w/w Tetracycline-free fetal bovine serum (FBS) and 250 μg/mL Zeocin. Clones were analyzed for expression of androgen receptor protein in the presence and absence of 10 ng/ml doxycycline (Sigma Cat #D9891), and a single doxycycline-inducible clone (hereinafter “SC3”) was selected for use in downstream assays.
(§3) The SC3 cells were seeded on poly-D-lysine coated, black clear-bottom 384-well plates at 2500/well, in 25 μL Phenol Red Free Dulbecco's Modified Eagle Medium (DMEM) supplemented with 10% w/w charcoal-dextran treated fetal bovine serum (FBS) and 1% w/w pen-strep, with or without 10 ng/ml doxycycline. Pen-Strep is a commercially available mixture of penicillin G and streptomycin, which is used in mammalian cell culture media to prevent bacterial contamination. Phenol Red Free Dulbecco's Modified Eagle Medium (DMEM) supplemented with 10% w/w charcoal-dextran treated fetal bovine serum (FBS) and 1% w/w pen-strep, with or without 10 ng/mL doxycycline is herein referred to as Treatment Medium. Following seeding of cells in the plates, the plates were spun at 300×g for 30 seconds, then equilibrated to room temperature for 30 minutes, and then deposited in a humidified tissue culture incubator maintained at 37° C. with 5% CO2.
(§4) At 24 hours after seeding of the cells, dilutions of test compound were prepared in DMSO and dissolved in Treatment Medium, to achieve a final DMSO concentration of 0.5% w/w, thereby providing the Test Compound Solution. A 25 μL aliquot of the Test Compound Solution was added to cells in the well plates. An equal volume of a solution containing DMSO and Treatment Medium was used as a negative control. Following treatment of cells with Test Compound Solution or said equal volume of a solution containing DMSO and Treatment Medium, the plates were spun at 300×g for 30 seconds, and then left in an incubator for 72 hours.
(§5) At the end of the treatment duration, cell viability was quantified with CellTiter-Glo 2.0 reagent (Promega Cat #G9243). For this purpose, plates were equilibrated to room temperature for 30 minutes, and then 25 μL of CellTiter-Glo 2.0 reagent was added to cells in the plate wells. Plates were then agitated on a shaker for two minutes at 500 rpm and subsequently incubated at room temperature for 10 minutes. Following incubation, the plates were spun at 3000×g for 30 seconds, then sealed with an optical adhesive cover, and luminescence readings were measured with an En Vision Plate Reader.
(§6) Data was normalized using zero luminescence for baseline. A four-parameter non-linear regression curve fit was applied to dose-response data in GraphPad Prism data analysis software to determine the half-maximal growth inhibitory concentration (GI50) for each test compound.
(In general: In ATP-based viability assays light output follows the ATP content of the culture.)

Experiment [2] deals with T-Rex 293 cell line SC3 cells lacking increased expression of androgen receptor protein. Briefly: Cellular growth inhibition, T-Rex 293 SC3 cells without doxycycline (CellTiter-Glo 2.0, 72 hours). It is filed as cell-based. The following applies: T-Rex 293 SC3 cells not exposed to doxycycline (no increased androgen receptor expression). The procedure:
as §1, §2, §3, §4, §5, §6

Experiment [3] relates to VCaP cells. Briefly: Cellular growth inhibition assay for VCaP cells (CellTiter-Glo 2.0, 72 hours). It is filed as cell-based, human. The following applies: for GI50: CellTiter-Glo 2.0; for Ratio of GI50's: GI50 of the top compound in the pair divided by GI50 of the lower compound. On the procedure:
Exemplary compounds were tested for ability to inhibit the proliferation of VCaP cells. VCap cells are a commercially available human prostate cancer cell line.
VCaP cells were purchased from American Type Cell Culture (ATCC Cat #CRL2876) and then seeded on poly-D-lysine coated, black clear-bottom 384-well plates at 5000/well in 25 μL Dulbecco's Modified Eagle Medium (DMEM) supplemented with 10% w/w Fetal bovine serum (FBS) and 1% w/w Pen-Strep. Pen-Strep is a commercially available mixture of penicillin G and streptomycin, which is used in mammalian cell culture media to prevent bacterial contamination. Dulbecco's Modified Eagle Medium (DMEM) supplemented with 10% w/w fetal bovine serum (FBS) and 1% w/w Pen-Strep is herein referred to as Treatment Medium. Following seeding of cells in the plates, the plates were spun at 300×g for 30 seconds, then equilibrated to room temperature for 30 minutes, and then deposited in a humidified tissue culture incubator maintained at 37° C. with 5% CO2.
as §4, §5, §6

Some results are limits rather than exact numbers.

Consider `COc1cc(O[C@H]2CC[C@H](NC(=O)c3ccc(N4CCC5(CCN(c6ccc(C7=N[C@@H](C)c8nnc(C)n8-c8sc(C)c(C)c87)cc6)CC5)C4)nn3)CC2)ccc1C#N` [Compound I-17, N-[4-(4-cyano-3-methoxy-phenoxy)cyclohexyl]-6-[8-[4-[(9S)-4,5,9,13-tetramethyl-3-thia-1,8,11,12-tetrazatricyclo[8.3.0.0^2,6]trideca-2 (6),4,7,10,12-pentaen-7-yl]phenyl]-2,8-diazaspiro[4.5]decan-2-yl]pyridazine-3-carboxamide], for which the “Ratio of GI50's” value in experiment [1] and in experiment [3] was 1 each time. In addition, the GI50 in experiment [1], in experiment [2] and in experiment [3] (72 hours) was < 500 nM throughout.
Consider `COc1cc(O[C@H]2CC[C@H](NC(=O)c3ccc(N4CCC5(CCC(c6ccc(C7=N[C@@H](C)c8nnc(C)n8-c8sc(C)c(C)c87)cc6)CC5)C4)nn3)CC2)ccc1C#N` (stereo partly drawn) [Compound I-19, N-[(1r,4r)-4-(4-cyano-3-methoxy-phenoxy)cyclohexyl]-6-[8-[4-[(9S)-4,5,9,13-tetramethyl-3-thia-1,8,11,12-tetrazatricyclo[8.3.0.0^2,6]trideca-2 (6),4,7,10,12-pentaen-7-yl]phenyl]-2-azaspiro[4.5]decan-2-yl]pyridazine-3-carboxamide], for which the 50% growth inhibitory concentration (GI50) in experiment [1] is < 500 nM; in experiment [2] (72 h) it was < 500 nM; in experiment [3] (Homo sapiens, VCaP, 72 h) it was < 500 nM.
As for `COc1cc(O[C@H]2CC[C@H](NC(=O)c3ccc(N4CCC5(CCC(c6ccc(C7=N[C@@H](C)c8nnc(C)n8-c8sc(C)c(C)c87)cc6)CC5)C4)nn3)CC2)ccc1C#N` (stereo partly shown) [Compound I-20], the GI50 in experiment [1], in experiment [2] and in experiment [3] (72 hours) was < 500 nM each time.
Turning to `COc1cc(O[C@H]2CC[C@H](NC(=O)c3ccc(N4CCC5(CCC(c6ccc(C7=N[C@@H](C)c8nnc(C)n8-c8sc(C)c(C)c87)cc6)C5)CC4)nn3)CC2)ccc1C#N` (stereo partly shown) [Compound I-21], the GI50 in experiment [1] is < 500 nM; in experiment [2], < 500 nM; in experiment [3] (72 hours) it was 500 to 1500 nM.
With `COc1cc(O[C@H]2CC[C@H](NC(=O)c3ccc(N4CCC5(CCC(c6ccc(C7=N[C@@H](C)c8nnc(C)n8-c8sc(C)c(C)c87)cc6)C5)CC4)nn3)CC2)ccc1C#N` (stereo partly shown) [Compound I-22], the 50% growth inhibitory concentration (GI50) is < 500 nM in experiment [1]; < 500 nM in experiment [2] (72 h); 500 to 1500 nM in experiment [3] (Homo sapiens, VCaP, 72 h).
With `COc1cc(O[C@H]2CC[C@H](NC(=O)c3ccc(N4CCC5(CCN(c6ccc(C7=N[C@@H](C)c8nnc(C)n8-c8sc(C)c(C)c87)cc6)C5)CC4)nn3)CC2)ccc1C#N` [Compound I-23], the 50% growth inhibitory concentration (GI50) in experiment [1] was > 3000 nM; in experiment [2] (72 h), < 500 nM; in experiment [3] (Homo sapiens, VCaP, 72 h) it was > 3000 nM.
Turning to `COc1cc(O[C@H]2CC[C@H](NC(=O)c3ccc(N4CCCC5(CCC(c6ccc(C7=N[C@@H](C)c8nnc(C)n8-c8sc(C)c(C)c87)cc6)CC5)C4)nn3)CC2)ccc1C#N` (stereo partly shown) [Compound I-24], the concentration for 50% growth inhibition (GI50) in experiment [1] was < 500 nM; in experiment [2] (72 h), 1500 to 3000 nM; in experiment [3] (Homo sapiens, VCaP, 72 h), < 500 nM.
Turning to `COc1cc(O[C@H]2CC[C@H](NC(=O)c3ccc(N4CCC5(CC4)CC(Cc4ccc(C6=N[C@@H](Cc7ncco7)c7nnc(C)n7-c7sc(C)c(C)c76)cc4)C5)nn3)CC2)ccc1C#N` [Compound I-25, N-[4-(4-cyano-3-methoxy-phenoxy)cyclohexyl]-6-[2-[[4-[(9S)-4,5,13-trimethyl-9-(oxazol-2-ylmethyl)-3-thia-1,8,11,12-tetrazatricyclo[8.3.0.0^2,6]trideca-2 (6),4,7,10,12-pentaen-7-yl]phenyl]methyl]-7-azaspiro[3.5]nonan-7-yl]pyridazine-3-carboxamide], the “Ratio of GI50's” value in experiment [1] and in experiment [3] was 1 each time. Also, the 50% growth inhibitory concentration (GI50) in experiment [1] was < 500 nM; in experiment [2] (72 h) it was < 500 nM; in experiment [3] (Homo sapiens, VCaP, 72 h), < 500 nM.
In the case of `COC[C@@H]1N=C(c2ccc(C3CCC4(CC3)CCN(c3ccc(C(=O)NC5CCC(Oc6ccc(C#N)c(OC)c6)CC5)nn3)C4)cc2)c2c(sc(C)c2C)-n2c(C)nnc21` (stereo partly drawn) [Compound I-27, N-[4-(4-cyano-3-methoxy-phenoxy)cyclohexyl]-6-[8-[4-[(9R)-9-(methoxymethyl)-4,5,13-trimethyl-3-thia-1,8,11,12-tetrazatricyclo[8.3.0.0^2,6]trideca-2 (6),4,7,10,12-pentaen-7-yl]phenyl]-2-azaspiro[4.5]decan-2-yl]pyridazine-3-carboxamide], the GI50 in experiment [1] was < 500 nM; in experiment [2] (72 h), < 500 nM; in experiment [3] (Homo sapiens, VCaP, 72 h), < 500 nM.
For `COCC[C@@H]1N=C(c2ccc(C3CCC4(CC3)CCN(c3ccc(C(=O)NC5CCC(Oc6ccc(C#N)c(OC)c6)CC5)nn3)C4)cc2)c2c(sc(C)c2C)-n2c(C)nnc21` (stereo partly drawn) [Compound I-29, N-[4-(4-cyano-3-methoxy-phenoxy)cyclohexyl]-6-[8-[4-[(9S)-9-(2-methoxyethyl)-4,5,13-trimethyl-3-thia-1,8,11,12-tetrazatricyclo[8.3.0.0^2,6]trideca-2 (6),4,7,10,12-pentaen-7-yl]phenyl]-2-azaspiro[4.5]decan-2-yl]pyridazine-3-carboxamide], the 50% growth inhibitory concentration (GI50) in experiment [1] was < 500 nM; in experiment [2] (72 h), < 500 nM; in experiment [3] (Homo sapiens, VCaP, 72 h) it was < 500 nM.
Regarding `COCC[C@@H]1N=C(c2ccc(C#CC3CC4(C3)CN(c3ccc(C(=O)NC5CCC(Oc6ccc(C#N)c(OC)c6)CC5)nn3)C4)cc2)c2c(sc(C)c2C)-n2c(C)nnc21` (stereo partly drawn) [Compound I-30, N-[4-(4-cyano-3-methoxy-phenoxy)cyclohexyl]-6-[6-[2-[4-[(9S)-9-(2-methoxyethyl)-4,5,13-trimethyl-3-thia-1,8,11,12-tetrazatricyclo[8.3.0.0^2,6]trideca-2 (6),4,7,10,12-pentaen-7-yl]phenyl]ethynyl]-2-azaspiro[3.3]heptan-2-yl]pyridazine-3-carboxamide], the GI50 in experiment [1], in experiment [2] and in experiment [3] (72 hours) was < 500 nM each time.
`CC[C@@H]1N=C(c2ccc(C#CC3CC4(C3)CN(c3ccc(C(=O)N[C@H]5CC[C@H](Oc6ccc(C#N)c(OC)c6)CC5)nn3)C4)cc2)c2c(sc(C)c2C)-n2c(C)nnc21` [Compound I-31, N-[4-(4-cyano-3-methoxy-phenoxy)cyclohexyl]-6-[6-[2-[4-[(9S)-9-ethyl-4,5,13-trimethyl-3-thia-1,8,11,12-tetrazatricyclo[8.3.0.0^2,6]trideca-2 (6),4,7,10,12-pentaen-7-yl]phenyl]ethynyl]-2-azaspiro[3.3]heptan-2-yl]pyridazine-3-carboxamide]: the GI50 in experiment [1] was < 500 nM; in experiment [2] (72 h), < 500 nM; in experiment [3] (Homo sapiens, VCaP, 72 h) it was < 500 nM.
